Experimental data published in ChEMBL document CHEMBL1151581, “New dipeptide isosteres useful for the inhibition of HIV-1 protease” (Bioorg Med Chem Lett, 1994).

Key:
[1] = system: CCRF-CEM; assay: Concentration required for antiviral activity using infected CEM cells; format: functional, cell-based; details: Homo sapiens
[2] = molecular target: Human immunodeficiency virus type 1 protease (Human immunodeficiency virus 1, UniProt Q72874); assay: Concentration required for in vitro inhibition of HIV-1 protease

Cc1ccc(C[C@@H](O)[C@H](Cc2ccccc2)NC(=O)[C@H](CC(N)=O)NC(=O)c2ccc3ccccc3n2)c(C(=O)NC(C)(C)C)c1
IC50 [1]: 20 nM

CC(C)(C)NC(=O)c1cc2ccccc2cc1C[C@@H](O)[C@H](Cc1ccccc1)NC(=O)[C@H](CC(N)=O)NC(=O)c1ccc2ccccc2n1
IC50 [1]: 980 nM | IC50 [2]: 149 nM

Cc1cccc(C[C@@H](O)[C@H](Cc2ccccc2)NC(=O)[C@H](CC(N)=O)NC(=O)c2ccc3ccccc3n2)c1C(=O)NC(C)(C)C
IC50 [1]: 920 nM | IC50 [2]: 28 nM

Cc1ccc(C(=O)NC(C)(C)C)c(C[C@@H](O)[C@H](Cc2ccccc2)NC(=O)[C@H](CC(N)=O)NC(=O)c2ccc3ccccc3n2)c1
IC50 [1]: 610 nM | IC50 [2]: 2.2 nM

CC(C)(C)NC(=O)c1c(C[C@@H](O)[C@H](Cc2ccccc2)NC(=O)[C@H](CC(N)=O)NC(=O)c2ccc3ccccc3n2)ccc2ccccc12
IC50 [1]: 190 nM | IC50 [2]: 3.5 nM
